SMILES strings stand for the structures.

In the assay the target is T1, human M4 muscarinic acetylcholine receptor (Homo sapiens, UniProt P08173).
T1 construct: expressed in transfected cells
T1 sequence (P08173 1-479): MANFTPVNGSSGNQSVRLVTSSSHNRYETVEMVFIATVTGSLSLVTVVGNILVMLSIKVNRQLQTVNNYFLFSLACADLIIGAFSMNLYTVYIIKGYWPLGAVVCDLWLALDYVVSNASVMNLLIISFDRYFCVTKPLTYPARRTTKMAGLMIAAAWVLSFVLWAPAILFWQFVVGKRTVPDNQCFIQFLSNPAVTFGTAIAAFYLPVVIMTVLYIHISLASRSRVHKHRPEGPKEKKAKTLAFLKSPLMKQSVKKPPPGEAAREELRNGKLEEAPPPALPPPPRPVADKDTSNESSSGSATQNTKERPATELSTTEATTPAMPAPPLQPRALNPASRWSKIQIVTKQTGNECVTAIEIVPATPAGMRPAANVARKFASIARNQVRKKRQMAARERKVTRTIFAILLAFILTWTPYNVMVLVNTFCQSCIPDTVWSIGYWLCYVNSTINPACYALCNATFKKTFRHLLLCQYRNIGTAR
The experiment in a line: human FLIPR-based M4 PAM assay (CHO-K1 cells with human M4 receptor and Gαqi5, calcium dye fluorescence, EC20 acetylcholine). Format: cell-based. The settings on record: inflection point (IP) of the dose response curve, human M4 receptor/Gαqi5, acetylcholine at 20% of maximum response, read-out: M4PAM Hu IP. Here is the method:
(§1) In a typical experiment the M4 muscarinic acetylcholine receptor modulating activity of the compounds of the present invention was determined in accordance with the following experimental method. CHO-K1 cells stably transfected with human M4 receptor and chimeric G-protein Gαqi5 (Coward P, et al., Analytical Biochemistry, 270:242-248 (1999)) are thawed from liquid N2 storage, resuspended in growth medium, plated in black, clear bottom 384 well plates, and incubated 16-20 hours at 37° C., 5% CO2. On the day of assay, growth medium is removed, the cells are washed 2 times with wash buffer, and cells are incubated in dye loading buffer at 37° C., 5% CO2 for ˜1 hour. Following dye loading the cell plates are placed in a FLIPR Tetra instrument and while monitoring dye fluorescence (excitation […]), 10 uL of test substance at increasing concentrations is added, and fluorescence values are recorded for 4 min. Next, 10 uL of acetylcholine is added (final concentration calculated so as to achieve 20% of the maximum acetycholine response), and the fluorescence reading is continued for 3.5 min. In some cases, a third addition of acetylcholine (final concentration calculated to achieve 70% of the maximal acetylcholine response) is performed. The resulting dose response curves are fit to a 4 parameter logistic equation and the final result is determined as the inflection point (IP) of the curve
as §1, with “CHO-K1” for “In a typical experiment the M4 muscarinic acetylcholine receptor modulating activity of the compounds of the present invention was determined in accordance with the following experimental method. CHO-K1”, “Gαqi5” for “Gαqi5 (Coward P, et al., Analytical Biochemistry, 270:242-248 (1999))”, “performed.” for “performed. The resulting dose response curves are fit to a 4 parameter logistic equation and the final result is determined as the inflection point (IP) of the curve”
In the case of `COc1cc2ccc(-c3nc(C)ccc3-c3cnn(CC4CCC(F)CC4)c3)cc2nn1` (centres unmarked) [Example 19, 7-(3-{1-[(4-fluorocyclohexyl)methyl]-1H-pyrazol-4-yl}-6-methylpyridin-2-yl)-3-methoxycinnoline], the EC50 turned out to be 0.043 µM.
Regarding `Cc1ccc(-c2cnn(CC3(C)CCC(F)(F)CC3)c2)c(-c2ccc3cccnc3c2)n1` [Example 93, 7-(3-{1-[(4,4-difluoro-1-methylcyclohexyl)methyl]-1H-pyrazol-4-yl}-6-methylpyridin-2-yl)quinoline], the EC50 was 0.024 µM.
As to `COc1cc2ccc(-c3nc(C#N)ccc3-c3cnn(CC(F)(F)C(F)(F)F)c3)cc2nn1` [Example 112, 6-(3-methoxycinnolin-7-yl)-5-[1-(2,2,3,3,3-pentafluoropropyl)-1H-pyrazol-4-yl]pyridine-2-carbonitrile], the EC50 was found to be 0.138 µM.
`COc1cc2ccc(-c3nc(C)ccc3-c3cnn(CCC(C)(C)F)c3)cc2nn1` [Example 3, 7-{3-[1-(3-fluoro-3-methylbutyl)-1H-pyrazol-4-yl]-6-methylpyridin-2-yl}-3-methoxycinnoline]: the EC50 stood at 0.057 µM.
In the case of `COc1cc2ccc(-c3nc(C)ccc3-c3cnn(CC4CCC(F)(F)CC4)c3)cc2nn1` [Example 17, 7-(3-{1-[(4,4-difluorocyclohexyl)methyl]-1H-pyrazol-4-yl}-6-methylpyridin-2-yl)-3-methoxycinnoline], the EC50 was determined as 0.056 µM.
Take `COc1ccnc(-c2ccc3cccnc3c2)c1-c1cnn(CCC(C)C)c1` [Example 51, 7-{4-methoxy-3-[1-(3-methylbutyl)-1H-pyrazol-4-yl]pyridin-2-yl}quinoline]: the EC50 amounted to 0.414 µM.
Take `CC(C)(Cn1cc(-c2ccc(C#N)nc2-c2ccc3cccnc3c2)cn1)C(F)(F)F` [Example 88, 6-quinolin-7-yl-5-[1-(3,3,3-trifluoro-2,2-dimethylpropyl)-1H-pyrazol-4-yl]pyridine-2-carbonitrile]: the EC50 was 0.044 µM.
Consider `Cc1ccc(-c2cnn(CC34CCC(CC3)CC4)c2)c(-c2ccc3cccnc3c2)n1` [Example 14, 7-{3-[1-(bicyclo[2.2.2]oct-1-ylmethyl)-1H-pyrazol-4-yl]-6-methylpyridin-2-yl}quinoline], for which the EC50 was 0.02 µM.
As for `Cc1ccc(-c2cnn(CC3CCC(F)(F)CC3)c2)c(-c2ccc3cccnc3c2)n1` [Example 16, 7-(3-{1-[(4,4-difluorocyclohexyl)methyl]-1H-pyrazol-4-yl}-6-methylpyridin-2-yl)quinoline], the EC50 stood at 0.124 µM.
The value for `Cc1ccc(-c2cnn(CCC(C)(C)F)c2)c(-c2ccc3cccnc3c2)n1` [Example 2, 7-(3-(1-(3-fluoro-3-methylbutyl)-1H-pyrazol-4-yl)-6-methylpyridin-2-yl)quinoline] was 0.07 µM.
The value for `CC(C)(C)Cn1cc(-c2ccc(C#N)nc2-c2ccc3cc(Cl)nnc3c2)cn1` [Example 42, 6-(3-chlorocinnolin-7-yl)-5-[1-(2,2-dimethylpropyl)-1H-pyrazol-4-yl]pyridine-2-carbonitrile] was 0.047 µM; that for `CCCc1ccc(-c2cnn(CCC(C)C)c2)c(-c2ccc3cccnc3c2)n1` [Example 69, 7-{3-[1-(3-methylbutyl)-1H-pyrazol-4-yl]-6-propylpyridin-2-yl}quinoline] was 0.185 µM.
Turning to `CC(C)CCn1cc(-c2ccc(C3CC3)nc2-c2ccc3cccnc3c2)cn1` [Example 70, 7-{6-(cyclopropyl)-3-[1-(3-methylbutyl)-1H-pyrazol-4-yl]pyridin-2-yl}quinoline], the EC50 was determined as 0.233 µM.
Consider `CC(C)CCn1cc(-c2ccc(C#N)nc2-c2ccc3cccnc3c2)cn1` [Example 66, 5-[1-(3-methylbutyl)-1H-pyrazol-4-yl]-6-quinolin-7-ylpyridine-2-carbonitrile], for which the EC50 stood at 0.024 µM.
With `CC(C)CCn1cc(-c2cccnc2-c2ccc3ccc(Cl)nc3c2)cn1` [Example 62, 2-chloro-7-{3-[1-(3-methylbutyl)-1H-pyrazol-4-yl]pyridin-2-yl}quinoline], the EC50 is 0.084 µM.
On to `COc1ccc(-c2cnn(CCC(C)C)c2)c(-c2ccc3cccnc3c2)n1` [Example 48, 7-{6-methoxy-3-[1-(3-methylbutyl)-1H-pyrazol-4-yl]pyridine-2-yl}quinoline], for which the EC50 turned out to be 0.22 µM.
Regarding `COc1cc2ccc(-c3nc(C)c(C#N)cc3-c3cnn(CC4(C(F)(F)F)CC4)c3)cc2nn1` [Example 57, 6-(3-methoxycinnolin-7-yl)-2-methyl-5-(1-{[1-(trifluoromethyl)cyclopropyl]methyl}-1H-pyrazol-4-yl)pyridine-3-carbonitrile], the EC50 was 0.243 µM.
As for `CC(C)C(F)(F)Cn1cc(-c2ccc(C#N)nc2-c2ccc3cccnc3c2)cn1` [Example 61, 5-[1-(2,2-difluoro-3-methylbutyl)-1H-pyrazol-4-yl]-6-quinolin-7-ylpyridine-2-carbonitrile], the EC50 was 0.026 µM.
Turning to `COc1cc2ccc(-c3nc(C)ccc3-c3cnn(CC4CC4(C)C)c3)cc2nn1` (centres unmarked) [Example 100, 7-(3-{1-[(2,2-dimethylcyclopropyl)methyl]-1H-pyrazol-4-yl}-6-methylpyridin-2-yl)-3-methoxycinnoline], the EC50 was 0.081 µM.
The value for `N#Cc1ccc(-c2cnn(CC3CC34CC4)c2)c(-c2ccc3cccnc3c2)n1` (centres unmarked) [Example 29, 6-quinolin-7-yl-5-[1-(spiro [2.2]pent-1-ylmethyl)-1H-pyrazol-4-yl]pyridine-2-carbonitrile] was 0.072 µM.
Take `COc1cc2ccc(-c3nc(C)ccc3-c3cnn(CC4(C)CCCO4)c3)cc2nn1` (centres unmarked) [Example 23, 3-methoxy-7-(6-methyl-3-{1-[(2-methyltetrahydrofuran-2-yl)methyl]-1H-pyrazol-4-yl}pyridin-2-yl)cinnoline]: the EC50 was determined as 0.111 µM.
For the compound `COc1cc2ccc(-c3ncc(Cl)cc3-c3cnn(CCC(C)C)c3)cc2nn1` [Example 53, 7-{5-chloro-3-[1-(3-methylbutyl)-1H-pyrazol-4-yl]pyridin-2-yl}-3-methoxycinnoline], the EC50 was 0.131 µM.
With `COc1cc2ccc(-c3nc(C#N)ccc3-c3cnn(CC4(C(F)F)CC4)c3)cc2nn1` [Example 28, 5-(1-{[1-(difluoromethyl)cyclopropyl]methyl}-1H-pyrazol-4-yl)-6-(3-methoxycinnolin-7-yl)pyridine-2-carbonitrile], the EC50 stood at 0.044 µM.
The value for `CC(C)(C)Cn1cc(-c2ccc(C#N)nc2-c2ccc3ccnnc3c2)cn1` [Example 43, 6-cinnolin-7-yl-5-[1-(2,2-dimethylpropyl)-1H-pyrazol-4-yl]pyridine-2-carbonitrile] was 0.112 µM; that for `N#Cc1ccc(-c2cnn(CC3(C(F)(F)F)CC3)c2)c(-c2ccc3cccnc3c2)n1` [Example 44, 6-quinolin-7-yl-5-(1-{[1-(trifluoromethyl)cyclopropyl]methyl}-1H-pyrazol-4-yl)pyridine-2-carbonitrile] was 0.061 µM; that for `c1cnc(-c2ccc3cccnc3c2)c(-c2cnn(CC3CCCCC3)c2)c1` [Example 106, 7-{3-[1-(cyclohexylmethyl)-1H-pyrazol-4-yl]pyridin-2-yl}quinoline] was 0.093 µM.
With `COc1cc2ccc(-c3nc(C#N)c(C)cc3-c3cnn(CC(C)(C)OC)c3)cc2nn1` [Example 33, 6-(3-methoxycinnolin-7-yl)-5-[1-(2-methoxy-2-methylpropyl)-1H-pyrazol-4-yl]-3-methylpyridine-2-carbonitrile], the EC50 turned out to be 0.084 µM.
As for `COc1cc2ccc(-c3nc(C)ccc3-c3cnn(CC(C)(C)C#N)c3)cc2nn1` [Example 84, 3-{4-[2-(3-methoxycinnolin-7-yl)-6-methylpyridin-3-yl]-1H-pyrazol-1-yl}-2,2-dimethylpropanenitrile], the EC50 came out at 0.198 µM.
On to `COc1cc2ccc(-c3nc(C)ccc3-c3cnn(CCC4CC(F)(F)C4)c3)cc2nn1` [Example 79, 7-(3-{1-[2-(3,3-difluorocyclobutyl)ethyl]-1H-pyrazol-4-yl}-6-methylpyridin-2-yl)-3-methoxycinnoline], for which the EC50 worked out at 0.166 µM.
